As a reminder, the IC50 is the concentration at which inhibition is half-maximal.

SMILES strings stand for the structures. Read-outs that look alike come from different tables or passages of the source.

Data on three molecules can be found in US11780843B2, “Compounds active towards nuclear receptors” (NUEVOLUTION A/S, priority 2020, dated 2023).

Test [1] has as its target T1, RORγ ligand-binding domain (Homo sapiens, UniProt P51449).
T1 construct: Gal4 (galactose-responsive transcription factor); expressed in transfected cells; host or cells: HEK293, transient co-transfection
T1 sequence (P51449 269-508 limits assumed): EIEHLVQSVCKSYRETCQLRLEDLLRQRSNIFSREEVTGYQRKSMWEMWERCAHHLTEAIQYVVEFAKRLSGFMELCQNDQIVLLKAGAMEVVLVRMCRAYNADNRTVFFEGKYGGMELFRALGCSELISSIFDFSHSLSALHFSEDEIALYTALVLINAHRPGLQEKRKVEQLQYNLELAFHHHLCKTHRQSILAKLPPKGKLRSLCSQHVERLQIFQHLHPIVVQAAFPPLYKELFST
The test is described as follows: RORγ Reporter Assay (Gal4). Type of test: cell-based. Summed up: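 HEK293 cells transiently co-transfected with Gal4–RORγ LBD fusion and UAS-luciferase reporter, plated 2 h, then exposed to compound (0.1% DMSO final) for 24 h at 37 °C. Luminescence read; percent reduction vs vehicle fitted to dose-response curves.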
(In general: A reporter such as luciferase makes a cellular process visible.)

The subject of test [2] is Th17 cells. The test can be described thus: Th17 Assay (IL-17 levels in supernatants of differentiated Th17 cells). Type of test: cell-based. The note with it: Homo sapiens, 168 h; naive CD4+ T cells differentiated to Th17 for seven days, IL-17 by ELISA. As to the method:
Human peripheral blood mononuclear cells (PBMCs) were isolated from buffy coats of healthy human volunteers using the Ficoll paque PLUS kit (GE Healthcare, cat no 17-1440-02), as instructed by the manufacturer. Naive CD4+ T cells were isolated with Naive CD4+ T cell kit, human (Milteny Biotec, cat no 130-094-131). The following modifications were made to the manufacturer's protocol: 1) Incubation with Biotin-Antibody Cocktail and Anti-Biotin MicroBeads was prolonged to 30 minutes, and 2) Cells were washed with 40 mL of Miltenyi buffer. Differentiation of Th17 cells in anti-CD3 (BD Pharmingen, 5 μg/ml) coated 96-well plates (400,000 cells/well, 160 μl RPMI 1640+10% Fetal Bovine Serum) containing 5 μg/ml anti-CD28 (BD Pharmingen), 10 ng/ml IL-2 (R&D Systems), 2.5 ng/ml TGFβ-1 (R&D Systems), 20 ng/ml IL-10 (R&D Systems), 20 ng/ml IL-6 (R&D Systems), 30 ng/ml IL-23 (R&D Systems), 2.5 μg/ml anti-IL-4 (R&D Systems) and 1 μg/ml anti-IFNγ (R&D Systems) and with test compound during the entire differentiation (or vehicle, 0.1% DMSO for control). Test compounds were tested in triplicates, diluted 1000-fold in medium (final DMSO concentration is 0.1%). […] IL-17 levels in supernatants were measured with ELISA (R&D Systems).
A general note: ELISA stands for enzyme-linked immunosorbent assay.

The subject of test [3] is IL-17A secretion in activated PBMCs. The test is described as follows: IL-17A secretion in activated PBMCs. Format: cell-based. The note with it: human PBMCs stimulated with CD3/CD28 Dynabeads for 48 h, absolute IC50. In short, it runs like this: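 Human PBMCs from healthy donors (40,000/well) preincubated 30 min with compound (10-point 5-fold series, 0.1% DMSO), then activated with CD3/CD28 beads (1:1) for 48 h at 37 °C. Supernatant IL-17A measured by bead immunoassay on flow cytometer; inhibition scaled between activated DMSO and 10 μM GNE09461 controls.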

The test system of test [4] is plasma IL-17A. The test is described as follows: In vivo IL-17A induction in anti-CD3 model in mice. The conditions noted are these: oral gavage twice daily day 0 to day 3, anti-CD3e induced C57BL/6JRj mice. As to the method: Male C57BL/6JRj mice (7 week old) were purchased from Janvier Labs and housed at the animal facilities of Almirall throughout the study. Animals were allowed to condition for 5 days in their new environment at 22° C.±2° C., 55%±10% relative humidity and 12 h:12 h light:dark cycles. Animals were housed in polycarbonate cages, with free access to water and non-purified stock diet (2014 Teklad Global 14% Protein Rodent Maintenance Diet, Envigo) during the full course of the studies. Care of animals was undertaken in compliance with the European Committee Directive 2010/63/EU, and the Catalan and Spanish law. […]
Plasma levels of IL-17A were measured by ELISA (R&D Systems) according to the manufacturer's instruction. Results were calculated as the percentage of reduction of plasma IL-17A versus the difference between non-induced and anti-CD3e induced groups through the formula: inhibition=100*[1−[(x−mean non-induced)/(mean control vehicle−mean non-induced)]]. The IL-17A inhibition for each treatment can be expressed as the mean for each treatment group±S.E.M. Statistical analysis of data were conducted with one-way ANOVA followed by Dunnett's multiple comparisons test when appropriate. […]

[5] abbreviates: HEK293 cells, luciferase reporter, 24 h incubation, absolute IC50, read-out: IC50.

For the molecule `NC(=O)CN1CCC(Cn2ccc3c(N4CCOCC4c4ccc(C(F)(F)F)cc4)ncnc32)CC1` (single isomer, unassigned) [Example P6-02-2], the IC50 in test [1] (setting [5]) was found to be 30 nM; in test [2], 124 nM.

In the case of `NC(=O)CN1CC[C@](O)(Cn2ccc3c(N(Cc4ccc(C(F)(F)F)cc4)C4CC4)ncnc32)[C@@H](O)C1` (single isomer, unassigned) [Example L5-1-1-1], the IC50 in test [1] (setting [5]) is 2.2 nM; in test [1] (stated as a bound only (Tables 5 a, 6, 7), read-out: Gal4 assay IC50), < 100 nM; in test [3] (Homo sapiens, PBMC, 48 h), 3.6 nM. The “Inhibition of IL-17A (%) at 3 mg/kg” value in test [4] was determined as 94%.

Turning to `NC(=O)CN1CC[C@@H](Cn2cc(F)c3c(N(Cc4ccc(C(F)(F)F)cc4)C4CC4)ncnc32)[C@H](O)C1` (single isomer, unassigned) [Example P6-14-1], the IC50 was 3.8 nM in test [1] (setting [5]) and 18 nM in test [3].
